Paper PMC6934184, “Selective DNA-PKcs inhibition extends the therapeutic index of localized radiotherapy and chemotherapy” (The Journal of Clinical Investigation, 2019)

Target: T1, FYN (Homo sapiens, UniProt P06241)
T1 construct: purchased Thermo Fisher Scientific (Life Technologies) SelectScreen
Assay: SelectScreen Z'LYTE
Format: biochemical
How it was run: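 SelectScreen broad panel; activity (Z'LYTE, Adapta) plus binding formats. ATP: Km app for CSF1R Z'LYTE; 10 for CAMK1 Adapta. Readout = % per kinase.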

T1 sequence (P06241 whole entry): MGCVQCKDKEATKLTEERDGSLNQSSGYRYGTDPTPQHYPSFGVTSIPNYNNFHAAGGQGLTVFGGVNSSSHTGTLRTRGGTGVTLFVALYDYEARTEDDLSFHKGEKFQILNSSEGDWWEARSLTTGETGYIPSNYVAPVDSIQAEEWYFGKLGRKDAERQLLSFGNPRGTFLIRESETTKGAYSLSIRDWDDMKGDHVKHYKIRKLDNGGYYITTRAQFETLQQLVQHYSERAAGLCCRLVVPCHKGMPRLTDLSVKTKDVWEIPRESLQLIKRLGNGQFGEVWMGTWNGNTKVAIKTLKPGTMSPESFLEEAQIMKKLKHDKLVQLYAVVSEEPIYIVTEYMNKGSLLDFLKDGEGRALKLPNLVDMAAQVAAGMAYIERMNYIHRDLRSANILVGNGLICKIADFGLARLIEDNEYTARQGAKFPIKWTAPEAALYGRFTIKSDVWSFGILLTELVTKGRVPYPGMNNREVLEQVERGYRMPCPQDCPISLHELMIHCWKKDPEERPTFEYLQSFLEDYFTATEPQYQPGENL

In the case of `CN(C(=O)CN1CCOCC1)c1ccc2sc3c(-c4cccc5c(=O)cc(N6CC7CCC(C6)O7)oc45)cccc3c2c1` [NU5455], the inhibition at 1 µM is reported as 8.3%.
